Data from patent US8962686B2 (priority 2010, dated 2015).
“Also recorded” adds a separate entry of the source. Like-named read-outs stand apart in the source and are kept apart here.

Experiments:
[1] = system: steroid-induced intraocular pressure (IOP) rise; conditions: for percentage of mean reduction in IOP rise: topical PB 1, 5 and 15 mM analyzed as one group, with Dex, vs Dex+BSS eye
Procedure: To explore this hypothesis, trimethylamine N-oxide (TMAO) was tested out using the same steroid-induced glaucoma model in rabbits. […] Fourteen New Zealand albino rabbits (7-week-old male) were divided into 5 groups. The right eyes received topical dexamethasone four times a day followed by topical TMAO (2, 10, 50, 100 and 300 mM) four times a day whereas the left eyes received topical dexamethasone four times a day followed by balanced salt solution, a physiological saline that acted as a control, four times a day.
Dexamethasone, a commonly used steroid was used in all our experiments. […] Herein, nine 7-week-old male New Zealand albino rabbits were randomly divided into 3 groups and each of them received Dexamethasone (Dex) (MaxiDex containing 0.1% Dex, Alcon) 5 times a day in both eyes. In addition, topical sodium phenylbutyrate (PB) (Triple Crown America/TriButyrate, Inc. Perkasie, Pa.) in concentrations of 1, 5 or 15 mM were applied to their right eyes 5 times a day and a balanced salt solution (BSS), a physiological saline that acted as a control, to their left eyes 5 times a day. Intraocular pressure (IOP) was measured twice a week at an interval of 3-4 days by a masked technician. […] Three time points (days 14, 37 and 53) were chosen for data analysis. […] The mean baseline intraocular pressure (IOP) was 11.5 mmHg for both eyes. The percentage of reduction in IOP rise by PB was defined as (“Mean IOP rise in eyes with Dex+BSS” minus “Mean IOP rise in eyes with Dex+PB”) divided by “Mean IOP rise in eyes with Dex+BSS”×100%.
FIG. 2B charts show the longitudinal profiles of IOP measurements of individual rabbits receiving Dex+BSS (left eye, diamonds line) and Dex+PB (right eye, squares line) respectively.
Fourteen 7-week-old male New Zealand albino rabbits received topical dexamethasone (Dex) (MaxiDex containing 0.1% Dex, Alcon) 4 times a day in both eyes.

[2] = system: trabecular meshwork (TM) cells; conditions: for percentage of TM cell loss: 14 days
Procedure: The cell density in the TM aqueous outflow region was examined using the Dex and Dex+PB treated rabbit eyes. […] The specimens were paraffin-processed and serially sectioned at a thickness of 5 μm for hematoxylin-eosin histochemistry. […] The number of cells in TM region was quantified and area was measured by Image J software (NIH, US). (D) The cell densities (mean±standard deviation) were compared among the control and treatment groups and P values were calculated by unpaired Student's t-test.

[3] = system: trabecular meshwork extracellular matrix; conditions: 14 days
Procedure: An experiment was conducted to determine whether sodium phenylbutyrate (PB) could reduce the amount of glycogen and collagen accumulated in the extracellular matrix of the trabecular meshwork. The extracellular protein and collagen substrate deposited on paraffin sections of TM aqueous outflow region were examined in Dex treated and Dex +PB treated rabbit eyes by special periodic acid-Schiff and Masson trichrome histochemical staining The rabbit eyes were paraffin-processed and serially sectioned at a thickness of 5 μm for histochemistry. Sections of (A) untreated control; (B) treated with Dex (0.1%) for 14 days and (C) treated with Dex (0.1%) +PB (0.5mM) for 14 days are shown.

[4] = system: trabecular meshwork (TM) tissues
Procedure: The ultrastructural morphology of rabbit trabecular meshwork (TM) tissues was examined in untreated control eyes, dexamethasone (Dex) (0.1%) treated eyes and Dex+PB (1 mM) treated eyes by transmission electron microscopy. […] The normal rabbit trabecular meshwork is shown in FIGS. 12A and B. It consists of bundles of fine fibers (elastic and collagen fibers) of the trabecular cells (FIG. 12A).

[5] = system: Y437H mutant myocilin transgene mice; conditions: oral administration; compared to untreated transgene mice; cited from earlier work
[6] = system: rabbit eye
Procedure: Adult male rabbits (n=13) received topical sodium phenylbutyrate (1 and 5 mM) 4 times a day in both eyes. […] The rabbit eyes were examined by an ophthalmologist on days 7 and 14 in which the rabbits were anesthetized with intramuscular injection of ketamine (75 mg/kg) and xylazine (7.5 mg/kg).

[7] = system: cultured human trabecular meshwork (TM) cells; experiment: MTT cell viability/proliferation assay; conditions: PB 0.5 mM and 1 mM, 5 days
Procedure: In these tests, cultured human TM cells (7000 cells/ml) were plated in each well in Dulbecco's Modified Eagle medium (DMEM) supplemented with 1000 mg/L glucose, 2% charcoal-stripped fetal bovine serum and antibiotics. They were treated with sodium phenylbutyrate (PB) (0.5, 1 and 5 mM), dexamethasone (Dex) (100 and 500 nM) and a combination of both for 5 days. Using the 3-(4,5-Dimethylthiazol-2-yl)-2,5-diphenyltetrazolium bromide dye (MTT) cell viability/proliferation assay (Invitrogen), the formazan intensity was measured with a multiplate reader at an excitation wavelength of 595 nm and an emission wavelength 610 nm. The mean signal intensity was expressed as a percentage and was compared to the untreated control among treatments.

[8] = system: steroid-induced IOP rise
Procedure: Eight rabbits were studied in this experiment. All their left eyes received Dex+BSS 5 times a day, from day 0 to day 60, the day when the experiment ended (squares line for both Phase I and Phase II). […] The right eyes of 3 randomly-chosen rabbits were treated with Dex+PB (sodium phenylbutyrate, 0.5 mM) eye drops 5 times a day, from day 0 to day 42. […] On day 43, the treatment of the right eyes of the 3 rabbits changed from Dex+PB to topical Dex+BSS. Still, Dex+BSS eye drops were applied 5 times a day, until day 60 when the experiment ended (broken brown line in Phase II).

[9] = system: elevated intraocular pressure from steroid-induced IOP rise
Procedure: On day 56 when Phase II of the experiment started, topical sodium phenylbutyrate (1 mM), instead of balanced salt solution, was applied to the left eyes of 5 rabbits (FIG. 3).

[10] = topical 1 and 5 mM 4 times a day

## C[N+](C)(C)[O-] [TMAO, trimethylamine N-oxide]
[1]; topical TMAO 2 to 300 mM 4 times a day with Dex, study period of 18 days
  effect on dexamethasone-induced IOP rise: did not prevent; also recorded: did not prevent or treat
[1]; topical TMAO 2 to 300 mM 4 times a day, 18 days
  IOP difference between Dex+BSS and Dex+TMAO eyes: no significant difference

## C[C@@H]1C[C@H]2[C@@H]3CCC4=CC(=O)C=C[C@]4(C)[C@@]3(F)[C@@H](O)C[C@]2(C)[C@@]1(O)C(=O)CO [dexamethasone]
[2]; Dex 0.1% for 14 days, vs untreated control
  reduction of cell density in TM region: 53%
[3]; topical dexamethasone 0.1% alone
  glycogen deposition in trabecular meshwork (periodic acid-Schiff): greater deposition of glycogen
[3]; topical dexamethasone 0.1% alone, vs untreated control
  collagen deposit in trabecular meshwork (Masson trichrome): substantially increased
[1]; day 14, topical 0.1% Dex 4 times a day in both eyes
  increase in intraocular pressure compared with baseline (day 0): up to 6 mmHg
[4]; topical 0.1% dexamethasone for 42 days
  ultrastructure of trabecular meshwork (electron microscopy): deposition of electron dense materials

## sodium phenylbutyrate
[5]
  effect on glaucoma phenotypes / elevated intraocular pressure: normalization of elevated intraocular pressure
[6]; application to the rabbit eye
  adverse ocular or systemic effects: No adverse ocular or systemic effects
[6]; [10]
  change in corneal endothelial cell density (specular microscopy): did not cause any significant change
  slit lamp biomicroscopy with fluorescein staining, defects in conjunctiva or cornea: did not reveal any defects
[6]; topical 1 and 5 mM 4 times a day, both eyes, 7-day post-treatment study period
  systemic signs (diarrhea, paralysis, convulsions/seizures, bleeding, death): none of them exhibited diarrhea, paralysis, convulsions/seizures, bleeding and/or death
[6]; topical 1 and 5 mM 4 times a day, examined days 7 and 14
  ocular surface diseases (hyperemia, swelling, inflammation, ulcers, bleeding): No ocular surface (conjunctiva and cornea) diseases
[2]; Dex 0.1% + PB 0.02 mM
  percentage of TM cell loss: 39%
[2]; Dex 0.1% + PB 0.1 mM
  percentage of TM cell loss: 31%
[2]; Dex 0.1% + PB 0.5 mM
  percentage of TM cell loss: 26%
[7]
  cytotoxicity to trabecular meshwork cells (MTT): not cytotoxic
[8]; Phase II, day 43 to day 60
  mean IOP level after cessation of topical PB: about 16.5 mmHg
[8]; day 43 to day 60, Dex+BSS after Dex+PB 0.5 mM
  increase in IOP after cessation of topical PB: less than 2 mmHg
[8]; day 60, 18 days after cessation of PB
  IOP at end of experiment: 16.6 mmHg
[8]; topical PB 0.5 mM 5 times a day to day 42, then Dex+BSS
  duration of suppression of IOP rise after cessation of eyedrops: ≤ 18 days
[3]; dexamethasone + sodium phenylbutyrate 1mM
  glycogen deposition in trabecular meshwork (periodic acid-Schiff): greatly reduced
[3]; dexamethasone + sodium phenylbutyrate
  collagen deposit in trabecular meshwork (Masson trichrome): Reduced collagen stain
[1]; day 14, PB 0.5 mM applied 1 time a day
  mean percentage of reduction in IOP increase: 13.2%
[1]; day 14, PB 0.5 mM applied 2 times a day
  mean percentage of reduction in IOP increase: 54.4%
[1]; day 14, PB 0.5 mM applied 4 times a day
  mean percentage of reduction in IOP increase: 57.9%
[1]; day 14, PB 0.5 mM applied 5 times a day
  mean percentage of reduction in IOP increase: 74.9%
[1]; day 14, other test doses (of 0.01, 0.1, 0.5, 1, 5, 15 mM), 5 times a day, strong responders
  reduction in steroid-induced IOP rise: about 50%
[1]; day 14, 5 times a day
  percentage of mean reduction in IOP rise: 45.0%
[1]; day 37, 5 times a day
  percentage of mean reduction in IOP rise: 84.7%
[1]; day 53, 5 times a day
  percentage of mean reduction in IOP rise: 50.0%
[4]; dexamethasone with concurrent topical 1 mM sodium phenylbutyrate for 48 days
  ultrastructure of trabecular meshwork (electron microscopy), deposition of electron dense materials: deposition was not apparent
[9]; day 67, eyes treated with PB 1 mM throughout both phases
  mean IOP level: 15.4 mmHg
[9]; day 67, topical 1 mM from day 56 in left eyes previously on Dex+BSS (20.5 mmHg on day 56)
  IOP after treatment: 16.6 mmHg
[9]; topical 1 mM, treatment period of 11 days (day 56 to day 67)
  reduction in IOP: 19%
